Calls of active or inactive are those of the source.
Legend:
[1] = biological target: DNA dC->dU-editing enzyme APOBEC-3A (Homo sapiens, UniProt P31941); assay: Dose Response confirmation of small molecule APOBEC3A DNA Deaminase Inhibitors via a fluorescence-based single-stranded DNA deaminase assay. [Related pubchem assays (depositor defined):AID493011, AID493024]; type: functional
[2] = biological target: DNA dC->dU-editing enzyme APOBEC-3G (Homo sapiens, UniProt Q9HC16); type: functional;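 further: Dose-response counterscreen measuring inhibition of APOBEC3G DNA deaminase activity, run while confirming APOBEC3A inhibitors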
Chain of DNA dC->dU-editing enzyme APOBEC-3G (Q9HC16 whole entry): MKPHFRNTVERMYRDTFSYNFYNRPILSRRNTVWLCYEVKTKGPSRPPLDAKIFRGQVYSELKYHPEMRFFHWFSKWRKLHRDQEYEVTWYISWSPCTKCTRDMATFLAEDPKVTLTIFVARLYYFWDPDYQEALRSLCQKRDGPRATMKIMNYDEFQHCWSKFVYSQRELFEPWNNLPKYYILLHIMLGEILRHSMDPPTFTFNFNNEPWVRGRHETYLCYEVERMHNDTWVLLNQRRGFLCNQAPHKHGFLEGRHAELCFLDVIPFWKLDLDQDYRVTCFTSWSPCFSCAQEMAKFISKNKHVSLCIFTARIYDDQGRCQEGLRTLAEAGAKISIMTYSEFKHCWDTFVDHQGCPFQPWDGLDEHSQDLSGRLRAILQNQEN

Streptokinase A = biological target: T1, Streptokinase A (Streptococcus pyogenes serotype M1, UniProt P10520); assay: S. pyogenes streptokinase expression inhibitors, potency, dose response, plasminogen activation absorbance, OD405 (AID 1914); type: functional, Streptococcus pyogenes M1 GAS;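 further: secreted streptokinase activity via plasminogen activation per viability signal from cell pellet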
T1 sequence (P10520 whole entry): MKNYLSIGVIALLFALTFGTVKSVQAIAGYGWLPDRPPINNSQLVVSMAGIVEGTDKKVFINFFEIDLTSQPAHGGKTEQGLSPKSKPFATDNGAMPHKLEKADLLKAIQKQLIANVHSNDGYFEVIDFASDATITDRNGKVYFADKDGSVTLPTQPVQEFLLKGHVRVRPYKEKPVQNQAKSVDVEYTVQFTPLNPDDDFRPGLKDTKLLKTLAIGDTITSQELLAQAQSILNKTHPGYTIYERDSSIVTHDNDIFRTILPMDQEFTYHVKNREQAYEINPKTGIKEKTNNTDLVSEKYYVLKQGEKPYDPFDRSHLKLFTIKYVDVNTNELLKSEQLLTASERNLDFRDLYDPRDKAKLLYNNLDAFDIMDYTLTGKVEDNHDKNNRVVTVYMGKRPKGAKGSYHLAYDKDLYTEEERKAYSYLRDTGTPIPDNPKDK

[3] = system: Streptococcus sp. 'group A'; assay: growth inhibition of control SK(-) GAS strain, dose response, counter-screen for streptokinase expression inhibitor project, luminescence, kanamycin, BacTiterGlo, confirmation (AID 1900); type: functional, organism-based
Protein RecA = biological target: T2, Protein RecA (Mycobacterium tuberculosis, UniProt P9WHJ3); assay: Fluorescence Cell-Free Homogeneous Dose Retest to Identify Inhibitors of RecA-Intein Splicing Activity. [Related pubchem assays (depositor defined):AID2097, AID2223, AID489010, AID492950]; type: functional
T2 sequence (P9WHJ3 whole entry): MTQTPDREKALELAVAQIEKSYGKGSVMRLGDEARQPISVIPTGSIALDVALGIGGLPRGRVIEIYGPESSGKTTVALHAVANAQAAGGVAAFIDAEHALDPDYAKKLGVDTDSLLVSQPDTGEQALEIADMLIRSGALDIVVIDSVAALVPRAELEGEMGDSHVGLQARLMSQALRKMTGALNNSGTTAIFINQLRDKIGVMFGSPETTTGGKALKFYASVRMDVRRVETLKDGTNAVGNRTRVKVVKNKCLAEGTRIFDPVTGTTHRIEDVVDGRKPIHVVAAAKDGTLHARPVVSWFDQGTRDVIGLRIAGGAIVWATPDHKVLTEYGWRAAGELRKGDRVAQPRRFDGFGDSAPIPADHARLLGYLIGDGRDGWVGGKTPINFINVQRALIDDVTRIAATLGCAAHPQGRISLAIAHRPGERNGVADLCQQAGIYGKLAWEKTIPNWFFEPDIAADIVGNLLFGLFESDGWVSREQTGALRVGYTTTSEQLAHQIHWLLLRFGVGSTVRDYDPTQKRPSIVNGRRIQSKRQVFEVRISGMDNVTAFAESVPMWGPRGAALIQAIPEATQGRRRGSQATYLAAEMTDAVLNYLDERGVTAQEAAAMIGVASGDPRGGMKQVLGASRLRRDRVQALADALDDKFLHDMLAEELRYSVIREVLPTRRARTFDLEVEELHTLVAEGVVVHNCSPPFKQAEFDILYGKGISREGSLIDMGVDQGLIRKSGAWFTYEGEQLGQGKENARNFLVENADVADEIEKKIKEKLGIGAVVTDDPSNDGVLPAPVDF

[4] = biological target: G-protein coupled receptor 55 (Homo sapiens, UniProt Q9Y2T6); assay: GPR55 agonists via beta-arrestin recruitment, primary screen, imaging, U2OS cells, beta-arrestin-GFP redistribution (AID 1961); type: functional
Chain of G-protein coupled receptor 55 (Q9Y2T6 whole entry): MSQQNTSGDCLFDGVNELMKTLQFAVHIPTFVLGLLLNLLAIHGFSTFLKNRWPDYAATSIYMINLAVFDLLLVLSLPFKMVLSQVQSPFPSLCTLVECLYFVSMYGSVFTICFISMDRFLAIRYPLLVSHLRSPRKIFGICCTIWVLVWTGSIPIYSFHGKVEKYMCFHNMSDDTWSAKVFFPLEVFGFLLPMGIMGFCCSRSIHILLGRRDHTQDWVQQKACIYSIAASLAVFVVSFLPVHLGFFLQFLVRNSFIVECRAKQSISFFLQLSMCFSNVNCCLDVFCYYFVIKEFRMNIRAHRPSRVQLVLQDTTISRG

[5] = biological target: T3, Replicative DNA helicase DnaB (Mycobacterium tuberculosis, UniProt P9WMR3); assay: DnaB intein splicing inhibitors, dose response, biochemical, cell-free fluorescence (AID 449749); type: functional
T3 sequence (P9WMR3 whole entry): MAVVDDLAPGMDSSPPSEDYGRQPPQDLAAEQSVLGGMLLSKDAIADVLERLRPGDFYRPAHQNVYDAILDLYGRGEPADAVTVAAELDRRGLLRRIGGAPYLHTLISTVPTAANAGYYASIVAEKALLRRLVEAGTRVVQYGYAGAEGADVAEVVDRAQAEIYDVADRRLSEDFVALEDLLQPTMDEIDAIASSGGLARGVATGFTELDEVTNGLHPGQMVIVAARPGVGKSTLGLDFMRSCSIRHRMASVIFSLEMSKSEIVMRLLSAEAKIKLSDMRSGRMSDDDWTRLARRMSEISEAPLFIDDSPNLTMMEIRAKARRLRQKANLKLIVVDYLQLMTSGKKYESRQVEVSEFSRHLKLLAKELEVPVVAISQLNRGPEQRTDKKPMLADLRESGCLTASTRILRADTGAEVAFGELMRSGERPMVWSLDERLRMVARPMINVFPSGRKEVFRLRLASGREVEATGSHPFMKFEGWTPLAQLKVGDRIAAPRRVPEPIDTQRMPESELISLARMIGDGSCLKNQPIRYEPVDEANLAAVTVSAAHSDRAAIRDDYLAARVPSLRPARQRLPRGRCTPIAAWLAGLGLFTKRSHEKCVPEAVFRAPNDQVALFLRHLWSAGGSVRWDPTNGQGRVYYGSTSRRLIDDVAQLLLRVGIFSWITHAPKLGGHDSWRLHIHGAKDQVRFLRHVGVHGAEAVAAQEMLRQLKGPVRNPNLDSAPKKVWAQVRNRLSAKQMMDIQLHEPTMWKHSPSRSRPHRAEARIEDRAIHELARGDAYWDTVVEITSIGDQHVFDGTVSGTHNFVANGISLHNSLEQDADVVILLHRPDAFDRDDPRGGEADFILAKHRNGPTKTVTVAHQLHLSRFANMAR

Streptococcus = assay: Group A Streptococcus viability loss, dose response, counter-screen for streptokinase expression inhibitor project, luminescence, BacTiterGlo (AID 1915); type: functional, organism-based;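 further: potency for reduction of bacterial viability or growth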
[6] = biological target: T4, Short transient receptor potential channel 4 (Mus musculus, UniProt Q9QUQ5); assay: mouse TRPC4 channel inhibitors, dose response, cell-based, HEK293 TRPC4/mu-opioid, Fluo-4 calcium (AID 434942); type: functional;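 further: potency of inhibitors blocking the TRPC4 calcium response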
T4 sequence (Q9QUQ5 whole entry): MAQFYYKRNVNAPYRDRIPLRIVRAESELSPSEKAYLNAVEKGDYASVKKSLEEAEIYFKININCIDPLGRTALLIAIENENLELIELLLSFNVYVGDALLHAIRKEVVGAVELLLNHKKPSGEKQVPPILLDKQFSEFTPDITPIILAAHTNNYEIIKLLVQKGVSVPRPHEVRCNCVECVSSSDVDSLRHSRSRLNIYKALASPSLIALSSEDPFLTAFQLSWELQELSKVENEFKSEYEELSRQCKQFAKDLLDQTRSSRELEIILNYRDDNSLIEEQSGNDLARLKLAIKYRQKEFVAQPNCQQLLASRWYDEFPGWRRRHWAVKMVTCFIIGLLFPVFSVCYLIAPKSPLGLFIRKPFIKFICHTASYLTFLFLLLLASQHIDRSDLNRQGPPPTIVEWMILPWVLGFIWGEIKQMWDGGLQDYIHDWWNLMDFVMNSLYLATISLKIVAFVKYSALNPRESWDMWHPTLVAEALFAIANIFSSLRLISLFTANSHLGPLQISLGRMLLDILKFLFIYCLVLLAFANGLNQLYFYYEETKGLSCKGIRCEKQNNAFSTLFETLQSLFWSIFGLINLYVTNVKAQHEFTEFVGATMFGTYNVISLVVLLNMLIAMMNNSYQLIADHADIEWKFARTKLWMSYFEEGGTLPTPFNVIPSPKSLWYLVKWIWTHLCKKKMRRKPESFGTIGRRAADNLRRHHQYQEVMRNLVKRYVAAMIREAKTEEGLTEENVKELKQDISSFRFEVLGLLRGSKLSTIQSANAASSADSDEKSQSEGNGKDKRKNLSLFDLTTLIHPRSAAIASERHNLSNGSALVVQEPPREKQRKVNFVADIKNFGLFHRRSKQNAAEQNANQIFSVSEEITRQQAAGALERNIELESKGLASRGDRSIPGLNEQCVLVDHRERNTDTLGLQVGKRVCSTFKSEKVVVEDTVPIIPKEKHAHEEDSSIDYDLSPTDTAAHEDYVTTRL

Large T antigen = Large T antigen (Simian virus 40, UniProt P03070); type: functional, Betapolyomavirus macacae;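 further: Confirmatory-stage PubChem screen for compounds that inhibit SV40 T antigen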
Chain of Large T antigen (P03070 whole entry): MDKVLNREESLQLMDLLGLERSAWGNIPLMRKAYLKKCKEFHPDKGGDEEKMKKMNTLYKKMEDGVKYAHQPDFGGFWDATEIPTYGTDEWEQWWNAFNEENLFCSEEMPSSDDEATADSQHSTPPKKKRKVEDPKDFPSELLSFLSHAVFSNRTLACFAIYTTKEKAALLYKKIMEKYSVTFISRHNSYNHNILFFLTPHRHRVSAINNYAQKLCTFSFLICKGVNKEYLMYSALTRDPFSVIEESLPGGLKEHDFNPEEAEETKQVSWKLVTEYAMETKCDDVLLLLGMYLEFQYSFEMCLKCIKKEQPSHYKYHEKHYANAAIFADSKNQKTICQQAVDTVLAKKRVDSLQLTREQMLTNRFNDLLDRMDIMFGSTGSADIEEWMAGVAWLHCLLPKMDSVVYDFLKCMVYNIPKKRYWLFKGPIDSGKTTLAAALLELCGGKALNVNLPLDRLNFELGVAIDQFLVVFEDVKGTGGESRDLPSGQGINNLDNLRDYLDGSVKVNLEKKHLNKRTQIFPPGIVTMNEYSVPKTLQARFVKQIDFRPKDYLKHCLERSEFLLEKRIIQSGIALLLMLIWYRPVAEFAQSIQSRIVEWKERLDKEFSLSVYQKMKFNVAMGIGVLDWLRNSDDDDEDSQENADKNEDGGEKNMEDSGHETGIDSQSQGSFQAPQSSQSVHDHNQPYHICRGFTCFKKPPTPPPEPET

[7] = biological target: T5, Sentrin-specific protease 1 (Homo sapiens, UniProt Q9P0U3); assay: potency of human SENP1 inhibitors, dose response, biochemical, kinetic FRET (AID 651697); type: functional; conditions: read-out: IC50_Mean
T5 sequence (Q9P0U3 whole entry): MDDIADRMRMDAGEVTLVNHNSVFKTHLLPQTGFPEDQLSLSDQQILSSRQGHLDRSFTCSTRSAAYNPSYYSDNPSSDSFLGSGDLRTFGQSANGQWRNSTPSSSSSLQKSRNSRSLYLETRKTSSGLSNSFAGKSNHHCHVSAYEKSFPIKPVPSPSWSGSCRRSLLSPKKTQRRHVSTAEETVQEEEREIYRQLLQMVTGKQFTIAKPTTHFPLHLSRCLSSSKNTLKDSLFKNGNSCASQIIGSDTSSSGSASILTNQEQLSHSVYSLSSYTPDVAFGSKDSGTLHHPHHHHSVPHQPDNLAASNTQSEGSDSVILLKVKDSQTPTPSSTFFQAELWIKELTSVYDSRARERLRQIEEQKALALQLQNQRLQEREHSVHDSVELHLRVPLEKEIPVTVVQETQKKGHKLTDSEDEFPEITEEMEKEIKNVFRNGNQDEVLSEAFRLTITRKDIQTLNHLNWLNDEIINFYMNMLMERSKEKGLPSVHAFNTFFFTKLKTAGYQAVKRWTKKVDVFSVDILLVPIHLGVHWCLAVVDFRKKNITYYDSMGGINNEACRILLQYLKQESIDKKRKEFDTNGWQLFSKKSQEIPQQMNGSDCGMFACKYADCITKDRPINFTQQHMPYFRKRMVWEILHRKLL

[8] = biological target: T6, Rac GTPase-activating protein 1 (Homo sapiens, UniProt Q9H0H5); assay: MgcRacGAP GTPase-activating activity inhibitors, confirmation, biochemical, ADP Hunter fluorescence, primary and confirmatory (AID 624330); type: functional
T6 sequence (Q9H0H5 whole entry): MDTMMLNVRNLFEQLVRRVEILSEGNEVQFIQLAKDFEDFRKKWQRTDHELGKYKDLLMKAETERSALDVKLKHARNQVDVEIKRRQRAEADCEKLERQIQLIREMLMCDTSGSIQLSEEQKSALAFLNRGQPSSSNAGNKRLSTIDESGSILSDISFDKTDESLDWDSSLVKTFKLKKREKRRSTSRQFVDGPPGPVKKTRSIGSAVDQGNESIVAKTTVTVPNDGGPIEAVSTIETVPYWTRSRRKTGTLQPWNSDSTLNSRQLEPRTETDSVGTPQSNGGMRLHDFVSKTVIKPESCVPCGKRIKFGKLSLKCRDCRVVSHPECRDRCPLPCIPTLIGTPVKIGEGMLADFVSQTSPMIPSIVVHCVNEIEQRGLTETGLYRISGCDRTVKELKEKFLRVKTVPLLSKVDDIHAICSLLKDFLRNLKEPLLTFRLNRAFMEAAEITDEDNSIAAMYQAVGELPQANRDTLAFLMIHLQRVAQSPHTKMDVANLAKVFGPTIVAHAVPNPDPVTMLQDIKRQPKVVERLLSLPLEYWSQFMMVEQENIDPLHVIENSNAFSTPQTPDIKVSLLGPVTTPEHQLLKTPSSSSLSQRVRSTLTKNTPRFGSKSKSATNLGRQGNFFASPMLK

[9] = biological target: T5, Sentrin-specific protease 1; assay: Dose response confirmation of small molecule inhibitors of the catalytic domain of the SUMO protease, SENP1 in a FRET assay.; type: functional; conditions: read-out: IC50_Mean
Cytochrome P450 2C19 = Cytochrome P450 2C19 (Homo sapiens, UniProt P33261); assay: Cytochrome panel assay with activity outcomes. Panel member name: p450-cyp2c19 Compounds with AC50 equal or less than 10 uM are considered active; type: functional
Chain of Cytochrome P450 2C19 (P33261 whole entry): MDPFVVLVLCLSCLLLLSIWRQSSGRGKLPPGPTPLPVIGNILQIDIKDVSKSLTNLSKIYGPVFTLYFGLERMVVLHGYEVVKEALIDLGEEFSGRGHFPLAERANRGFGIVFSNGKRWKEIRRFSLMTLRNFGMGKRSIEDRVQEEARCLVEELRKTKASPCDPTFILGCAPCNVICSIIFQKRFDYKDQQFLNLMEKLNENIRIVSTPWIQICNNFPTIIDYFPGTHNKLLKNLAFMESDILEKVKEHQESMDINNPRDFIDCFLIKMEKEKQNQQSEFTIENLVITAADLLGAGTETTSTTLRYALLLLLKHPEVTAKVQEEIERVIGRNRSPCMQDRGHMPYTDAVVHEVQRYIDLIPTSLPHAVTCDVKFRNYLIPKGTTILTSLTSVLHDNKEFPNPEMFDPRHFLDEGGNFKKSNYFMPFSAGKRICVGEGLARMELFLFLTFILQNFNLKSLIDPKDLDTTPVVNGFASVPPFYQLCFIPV

Cytochrome P450 2C9 = Cytochrome P450 2C9 (Homo sapiens, UniProt P11712)
Chain of Cytochrome P450 2C9 (P11712 whole entry): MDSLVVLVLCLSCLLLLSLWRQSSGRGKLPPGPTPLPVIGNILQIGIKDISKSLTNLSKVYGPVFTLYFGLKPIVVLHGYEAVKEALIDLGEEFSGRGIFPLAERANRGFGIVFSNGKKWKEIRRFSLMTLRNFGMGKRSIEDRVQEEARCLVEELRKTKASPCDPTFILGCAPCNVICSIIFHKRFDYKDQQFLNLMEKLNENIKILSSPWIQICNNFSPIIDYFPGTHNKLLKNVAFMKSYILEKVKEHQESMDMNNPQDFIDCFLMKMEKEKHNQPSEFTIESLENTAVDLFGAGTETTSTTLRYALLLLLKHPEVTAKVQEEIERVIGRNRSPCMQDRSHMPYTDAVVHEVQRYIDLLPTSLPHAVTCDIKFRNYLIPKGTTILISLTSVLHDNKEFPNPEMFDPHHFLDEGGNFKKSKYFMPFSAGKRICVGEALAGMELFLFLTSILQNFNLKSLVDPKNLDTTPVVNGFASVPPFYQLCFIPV

Cytochrome P450 2D6 = Cytochrome P450 2D6 (Homo sapiens, UniProt P10635);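 further: CYP2D6 member of a cytochrome P450 panel assay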
Chain of Cytochrome P450 2D6 (P10635 whole entry): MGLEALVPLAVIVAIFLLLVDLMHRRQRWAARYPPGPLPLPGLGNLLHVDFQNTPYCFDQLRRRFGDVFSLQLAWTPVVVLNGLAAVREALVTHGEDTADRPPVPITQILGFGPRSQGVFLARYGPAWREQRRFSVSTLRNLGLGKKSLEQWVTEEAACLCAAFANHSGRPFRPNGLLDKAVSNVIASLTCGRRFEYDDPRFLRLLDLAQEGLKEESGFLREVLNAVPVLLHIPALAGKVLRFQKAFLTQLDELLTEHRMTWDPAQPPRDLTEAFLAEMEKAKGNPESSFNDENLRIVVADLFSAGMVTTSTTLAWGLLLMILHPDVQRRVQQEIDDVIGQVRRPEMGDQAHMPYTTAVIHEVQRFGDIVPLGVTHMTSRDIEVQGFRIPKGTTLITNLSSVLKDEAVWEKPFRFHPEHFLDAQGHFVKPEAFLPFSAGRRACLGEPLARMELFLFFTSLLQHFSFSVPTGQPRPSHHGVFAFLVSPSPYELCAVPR

Chain of DNA dC->dU-editing enzyme APOBEC-3A (P31941 whole entry): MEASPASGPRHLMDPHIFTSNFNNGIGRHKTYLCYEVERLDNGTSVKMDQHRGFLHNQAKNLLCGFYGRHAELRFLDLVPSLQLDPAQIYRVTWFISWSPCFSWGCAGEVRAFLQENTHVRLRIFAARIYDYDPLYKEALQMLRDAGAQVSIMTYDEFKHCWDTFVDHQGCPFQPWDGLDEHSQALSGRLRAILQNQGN

## CCn1c(C)nc2cc(S(=O)(=O)Nc3ccc(C)cc3)ccc21
[1]
  IC50: 4.42 µM (active)
[2]
  IC50: 4.4 µM (active)

## CC1C(=O)C(C)C(c2cc(Cl)ccc2O)NC1c1cc(Cl)ccc1O (stereo not drawn)
Streptokinase A
  EC50: > 150 µM (not active)
[3]
  EC50: 1.4 µM (active)
Protein RecA
  EC50: 8.24 µM (active)
[4]
  EC50: > 32 µM (inactive)
[5]
  AC50: 4.77 µM (active)
Streptococcus
  EC50: 11.5 µM (active)

## CCn1c(=O)n(CCOC)c(=O)c2c3c(sc21)CCCC3
[6]
  EC50: 1.19 µM (active)

## CCOc1cc(/C=C2\N=C3CCCCCN3C2=O)ccc1O
Large T antigen
  IC50: 16.9 µM (active)
[7]
  IC50: 9.57 µM (active)
[8]
  IC50: 39.9 µM (active)
[9]
  IC50: 7.67 µM (active)

## CCCN(CCC)Cc1c(C(=O)N/N=C/C(C)=C\c2ccccc2)nnn1-c1nonc1N
[4]
  EC50: 0.525 µM (active)

## CCN1C(NCc2ccc(OC)cc2)=N[C@@H](c2ccccc2)C(C(=O)OC)=C1C
[1]
  IC50: 4.07 µM (active)
[2]
  IC50: 5.66 µM (active)

## C[N+](C)(C)CCN(Cc1ccc(Cl)cc1)c1ccccn1.[I-]
Cytochrome P450 2C19
  AC50: inconclusive
Cytochrome P450 2C9
  AC50: inconclusive
[1]
  IC50: 2.05 µM (active)
Cytochrome P450 2D6
  AC50: 0.251 µM (inconclusive)
[2]
  IC50: 2.01 µM (active)

## COc1ccc(NCN2C(=O)C3C4C=CC(C4)C3C2=O)cc1 (stereo not drawn)
Large T antigen
  IC50: 23.2 µM (active)

## CC(=O)Nc1ccc(S(=O)(=O)Nc2nc3ccccc3nc2Nc2ccc(O)cc2)cc1
Large T antigen
  IC50: 9.57 µM (active)

— ChEMBL document CHEMBL1201862, “PubChem BioAssay data set” (2004)
